In patent US20250270200A1, “CTPS1 INHIBITORS AND USES THEREOF” (Nimbus Clotho, Inc., priority 2022, published 2025):

biological target: T1, human CTPS1 (Homo sapiens, UniProt P17812); assay: ADP-Glo assay, human CTPS1 enzyme inhibition; format: biochemical; details: wild-type human CTPS1 25 nM; ATP 120 μM, UTP 160 μM, GTP 60 μM, L-glutamine 100 μM; 25 degrees C.; read-out: ADP-Glo_WT_hCTPS1—25 nM_IC50 (IC50)
T1 sequence (P17812 1-591): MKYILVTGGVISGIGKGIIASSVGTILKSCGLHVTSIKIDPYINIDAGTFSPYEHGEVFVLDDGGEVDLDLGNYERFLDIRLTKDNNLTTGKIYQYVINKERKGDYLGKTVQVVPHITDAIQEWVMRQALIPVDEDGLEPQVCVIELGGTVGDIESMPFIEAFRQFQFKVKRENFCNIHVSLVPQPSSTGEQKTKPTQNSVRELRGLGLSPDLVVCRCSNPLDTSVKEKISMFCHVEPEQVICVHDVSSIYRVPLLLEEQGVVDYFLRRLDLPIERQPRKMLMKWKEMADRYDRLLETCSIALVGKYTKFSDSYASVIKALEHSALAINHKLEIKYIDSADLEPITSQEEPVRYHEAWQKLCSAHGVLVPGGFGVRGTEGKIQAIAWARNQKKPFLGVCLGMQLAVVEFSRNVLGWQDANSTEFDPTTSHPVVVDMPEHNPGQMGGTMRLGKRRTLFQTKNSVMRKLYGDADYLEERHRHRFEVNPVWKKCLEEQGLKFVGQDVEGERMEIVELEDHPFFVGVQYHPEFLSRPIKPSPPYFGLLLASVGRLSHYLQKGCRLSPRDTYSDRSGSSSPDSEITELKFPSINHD
Summary of the method: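 ADP-Glo luminescence quantified ADP produced by 25 nM purified human CTPS1 (full length, FLAG-His tagged) at 25° C within the linear phase. Final substrates: ATP 120 μM, UTP 160 μM, GTP 60 μM, L-glutamine 100 μM; 1% DMSO; pH 7.4 HEPES buffer with Mg2+, KCl, DTT. Compound pre-incubated with enzyme 10 min, then with ATP/UTP 10 min.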

| IC50 [nM] | SMILES |
| --- | --- |
| 25 to 50 | CCOc1cncc(-c2cnc(C(=O)N[C@@H](c3cccc(NS(=O)(=O)C(F)F)c3)[C@@H](C)CN3CCCCC3)s2)n1 (single isomer, unassigned) [II-11] |
| 5 to 25 | O=C(N[C@H](c1cc(NS(=O)(=O)C2CC2)ccn1)C1CCOCC1)c1nnc(-c2cnn3ccc(Cl)cc23)s1 (single isomer, unassigned) [II-15] |

same assay, conditions: wild-type human CTPS1, 25 nM enzyme; ADP-Glo; read-out: ADP-Glo_WT_hCTPS1—25 nM_IC50 (IC50)

| SMILES | IC50 [nM] |
| --- | --- |
| CCOc1cncc(-c2cnc(C(=O)N[C@H](c3cccc(NS(=O)(=O)C(F)F)c3)[C@@H](C)CO)s2)n1 [I-243, N-((1S,2R)-1-(3-((difluoromethyl)sulfonamido)phenyl)-3-hydroxy-2-methylpropyl)-5-(6-ethoxypyrazin-2-yl)thiazole-2-carboxamide] | 5 to 25 |
| CCOc1cncc(-c2cnc(C(=O)N[C@H](c3cc(NS(=O)(=O)C4CC4)ccn3)[C@H]3CCN(C4CCCC4)C3)s2)n1 [I-93, N-((S)-((S)-1-cyclopentylpyrrolidin-3-yl)(4-(cyclopropanesulfonamido)pyridin-2-yl)methyl)-5-(6-ethoxypyrazin-2-yl)thiazole-2-carboxamide] | 5 to 25 |
| CCOc1cncc(-c2cnc(C(=O)N[C@@H](c3cc(NS(=O)(=O)C4CC4)ncn3)[C@@H]3CCOC3)s2)n1 [I-257, N-((R)-(6-(cyclopropanesulfonamido)pyrimidin-4-yl)((S)-tetrahydrofuran-3-yl)methyl)-5-(6-ethoxypyrazin-2-yl)thiazole-2-carboxamide] | 5 to 25 |
| CCOc1cncc(-c2cnc(C(=O)N[C@H](CN3C[C@H]4C[C@@H](C3)C4)c3cc(NS(=O)(=O)C4CC4)ccn3)s2)n1 [I-152, N-((R)-2-((1R,5R)-3-azabicyclo[3.1.1]heptan-3-yl)-1-(4-(cyclopropanesulfonamido)pyridin-2-yl)ethyl)-5-(6-ethoxypyrazin-2-yl)thiazole-2-carboxamide] | 5 to 25 |
| CCOc1cncc(-c2cnc(C(=O)N[C@@H](c3cc(NS(=O)(=O)C4CC4)ccn3)[C@H]3CC(=O)N(C)C3)s2)n1 [I-122, N-((R)-(4-(cyclopropanesulfonamido)pyridin-2-yl)((S)-1-methyl-5-oxopyrrolidin-3-yl)methyl)-5-(6-ethoxypyrazin-2-yl)thiazole-2-carboxamide] | 5 to 25 |
| CCOc1cncc(-c2cnc(C(=O)N[C@H](Cn3nccn3)c3cccc(NS(=O)(=O)C(F)F)c3)s2)n1 [I-216, (S)-N-(1-(3-((difluoromethyl)sulfonamido)phenyl)-2-(2H-1,2,3-triazol-2-yl)ethyl)-5-(6-ethoxypyrazin-2-yl)thiazole-2-carboxamide] | ≤ 5 |
| CCOc1cncc(-c2ccc(C(=O)NCc3cc(NS(=O)(=O)C4CC4)ccn3)cn2)n1 [I-172, N-((4-(cyclopropanesulfonamido)pyridin-2-yl)methyl)-6-(6-ethoxypyrazin-2-yl)nicotinamide] | 25 to 50 |
| CCOc1cncc(-c2cnc(C(=O)NC(CC(C)(C)N(C)C)c3cc(NS(=O)(=O)C4CC4)ccn3)s2)n1 (centres unmarked) [I-48, N-(1-(4-(cyclopropanesulfonamido)pyridin-2-yl)-3-(dimethylamino)-3-methylbutyl)-5-(6-ethoxypyrazin-2-yl)thiazole-2-carboxamide] | 5 to 25 |
| CCOc1cncc(-c2cnc(C(=O)NC(c3cc(NS(=O)(=O)C4CC4)ccn3)C3CN(C)CCO3)s2)n1 (single isomer, unassigned) [I-106, N-((4-(cyclopropanesulfonamido)pyridin-2-yl)(4-methylmorpholin-2-yl)methyl)-5-(6-ethoxypyrazin-2-yl)thiazole-2-carboxamide] | 5 to 25 |
| CCOc1cncc(-c2cnc(C(=O)N[C@@H](CN3CCCCC3)c3cccc(NS(=O)(=O)C(F)F)c3)s2)n1 [I-219, (R)-N-(1-(3-((difluoromethyl)sulfonamido)phenyl)-2-(piperidin-1-yl)ethyl)-5-(6-ethoxypyrazin-2-yl)thiazole-2-carboxamide] | 5 to 25 |
| CCOc1cncc(-c2cnc(C(=O)N[C@H](c3cc(NS(=O)(=O)C4CC4)ccn3)[C@@H]3CCCO3)s2)n1 [I-60, N-((R)-(4-(cyclopropanesulfonamido)pyridin-2-yl)((S)-tetrahydrofuran-2-yl)methyl)-5-(6-ethoxypyrazin-2-yl)thiazole-2-carboxamide] | 5 to 25 |
| CCOc1cncc(-c2cnc(C(=O)N[C@@H](c3cccc(NS(=O)(=O)C(F)F)c3)[C@@H](C)CO)s2)n1 [I-244, N-((1R,2R)-1-(3-((difluoromethyl)sulfonamido)phenyl)-3-hydroxy-2-methylpropyl)-5-(6-ethoxypyrazin-2-yl)thiazole-2-carboxamide] | ≤ 5 |
| CCOc1cncc(-c2cnc(C(=O)N(C)[C@@H](c3cc(NS(=O)(=O)C4CC4)ccn3)[C@@H]3CCOC3)s2)n1 [I-66, N-((R)-(4-(cyclopropanesulfonamido)pyridin-2-yl)((S)-tetrahydrofuran-3-yl)methyl)-5-(6-ethoxypyrazin-2-yl)-N-methylthiazole-2-carboxamide] | 25 to 50 |
| CCOc1cncc(-c2cnc(C(=O)N[C@@H](CN3CCOC[C@@H]3C)c3cc(NS(=O)(=O)C4CC4)ccn3)s2)n1 (single isomer, unassigned) [I-34] | 5 to 25 |
| CCOc1cncc(-c2ccc(C(=O)N[C@H](c3cc(NS(=O)(=O)C4CC4)ccn3)[C@H]3CCCO3)nc2)n1 [I-67, N-((R)-(4-(cyclopropanesulfonamido)pyridin-2-yl)((R)-tetrahydrofuran-2-yl)methyl)-5-(6-ethoxypyrazin-2-yl)picolinamide] | 25 to 50 |
| CCOc1cncc(-c2cnc(C(=O)N[C@]3(c4cc(NS(=O)(=O)C5CC5)ccn4)CCOC3)s2)n1 (single isomer, unassigned) [I-72] | 5 to 25 |
| CCOc1cncc(-c2cnc(C(=O)N[C@H](c3cc(NS(=O)(=O)C4CC4)ncn3)C3CCOCC3)s2)n1 (single isomer, unassigned) [I-254] | 5 to 25 |

Continued, values first:

| IC50 [nM] | SMILES |
| --- | --- |
| 25 to 50 | CCOc1cncc(-c2cnc(C(=O)N[C@H](CN3CCN(C4CC4)CC3)c3cc(NS(=O)(=O)C4CC4)ncn3)s2)n1 [I-249, (R)-N-(1-(6-(cyclopropanesulfonamido)pyrimidin-4-yl)-2-(4-cyclopropylpiperazin-1-yl)ethyl)-5-(6-ethoxypyrazin-2-yl)thiazole-2-carboxamide] |
| ≤ 5 | CCOc1cncc(-c2cnc(C(=O)N[C@@H](c3cc(NS(=O)(=O)C4CC4)ccn3)[C@H]3C[C@H]4CC[C@@H]3O4)s2)n1 [I-84, N-((R)-((1S,2R,4R)-7-oxabicyclo[2.2.1]heptan-2-yl)(4-(cyclopropanesulfonamido)pyridin-2-yl)methyl)-5-(6-ethoxypyrazin-2-yl)thiazole-2-carboxamide] |
| 5 to 25 | CCOc1cncc(-c2cnc(C(=O)N[C@@H](CO[C@@H]3CCOC3)c3cc(NS(=O)(=O)C4CC4)ccn3)s2)n1 [I-239, N-((R)-1-(4-(cyclopropanesulfonamido)pyridin-2-yl)-2-(((R)-tetrahydrofuran-3-yl)oxy)ethyl)-5-(6-ethoxypyrazin-2-yl)thiazole-2-carboxamide] |
| ≤ 5 | CCOc1cncc(-c2cnc(C(=O)N[C@@H](c3cc(NS(=O)(=O)C4CC4)ccn3)[C@@H]3COCCO3)s2)n1 [I-76, N-((S)-(4-(cyclopropanesulfonamido)pyridin-2-yl)((R)-1,4-dioxan-2-yl)methyl)-5-(6-ethoxypyrazin-2-yl)thiazole-2-carboxamide] |
| ≤ 5 | CCOc1cncc(-c2cnc(C(=O)N[C@H](CN3CCOC[C@@H]3C)c3cc(NS(=O)(=O)C4CC4)ccn3)s2)n1 (single isomer, unassigned) [I-35] |
| 25 to 50 | CCOc1cncc(-c2cnc(C(=O)NCc3ccnc(NS(=O)(=O)C4CC4)n3)s2)n1 [I-178, N-((2-(cyclopropanesulfonamido)pyrimidin-4-yl)methyl)-5-(6-ethoxypyrazin-2-yl)thiazole-2-carboxamide] |
| 25 to 50 | CCOc1cncc(-c2ccc(C(=O)N[C@@H](c3cc(NS(=O)(=O)C4CC4)ccn3)[C@H]3CCCO3)nc2)n1 [I-70, N-((S)-(4-(cyclopropanesulfonamido)pyridin-2-yl)((R)-tetrahydrofuran-2-yl)methyl)-5-(6-ethoxypyrazin-2-yl)picolinamide] |
| ≤ 5 | CCOc1cncc(-c2cnc(C(=O)N[C@@H](c3cc(NS(=O)(=O)C4CC4)ccn3)[C@@H](C)O)s2)n1 [I-269, N-((1S,2R)-1-(4-(cyclopropanesulfonamido)pyridin-2-yl)-2-hydroxypropyl)-5-(6-ethoxypyrazin-2-yl)thiazole-2-carboxamide] |
| ≤ 5 | CCOc1cncc(-c2cnc(C(=O)N[C@H](c3cc(NS(=O)(=O)C4CC4)ccn3)[C@H](C)COC)s2)n1 [I-237, N-((1S,2S)-1-(4-(cyclopropanesulfonamido)pyridin-2-yl)-3-methoxy-2-methylpropyl)-5-(6-ethoxypyrazin-2-yl)thiazole-2-carboxamide] |
| 5 to 25 | CCOc1cncc(-c2cnc(C(=O)N[C@H](c3cc(NS(=O)(=O)C4CC4)ccn3)[C@H](C)OC)s2)n1 (single isomer, unassigned) [I-47] |
